Columns and labels:
[1] = system: human prostate cancer cells PC3; experiment: Growth of PC3 cells, XTT cell counting; assay type: cell-based; details: 10 μM, 48 hours, no magnetic field
Procedure: Cell cultivation: Place 150 μL of a mixture liquid containing 10000 human prostate cancer cells PC3 into every well of a 96-well culture plate. […] Agent addition: 24 hours later, separately mix […] magnetic nanocomposite (600 μg/mL), Taxol, and […]/Taxol magnetic nanomedicine with a RPMI1640 medium to form mixed solutions. […] Cell counting: […]

α-tubulin = experiment: Content of α-tubulin in CWR22R cells, Western method; details: 10 μM, 24 hours, no magnetic field
tubulin protein [2] = experiment: Stability analysis: residual activity by tubulin protein assay after storage; details: stored at 25° C. for 14 days
tubulin protein [3] = system: tubulin protein
[4] = system: human prostate cancer cells CWR22R; experiment: Growth of CWR22R cells, XTT cell counting; assay type: cell-based; details: 10 μM, 48 hours, no magnetic field
Procedure: Cell cultivation: Place 150 μL of a mixture liquid containing 10000 human prostate cancer cells CW[…] into every well of a 96-well culture plate. […] Agent addition: 24 hours later, separately mix […] magnetic nanocomposite (600 μg/mL), Taxol, and […]/Taxol magnetic nanomedicine with a RPMI1640 medium to form mixed solutions. […] Cell counting: Remove RPMI1640 and add 120 μL of an XTT reaction liquid to the wells.

half-life (physchem): 19 h
activity after storage (tubulin protein [2]): has lost its activity
half life (tubulin protein [3]): 32 h
Structure (SMILES): CC(=O)O[C@H]1C(=O)[C@@]2(C)[C@H]([C@H](OC(=O)c3ccccc3)[C@]3(O)C[C@H](OC(=O)[C@H](O)[C@@H](NC(=O)c4ccccc4)c4ccccc4)C(C)=C1C3(C)C)[C@]1(OC(C)=O)CO[C@@H]1C[C@@H]2O [Taxol]
PC3 growth-inhibition ratio [1]: 25%
α-tubulin inhibition ratio (α-tubulin): 52%
CWR22R growth-inhibition ratio [4]: 41%
